Patent US10105446B2, “Pharmaceutical compositions for high-capacity targeted delivery” (Wake Forest University Health Sciences, priority 2013, dated 2018)

Legend:
C4-2 cells = test: Cytotoxicity, CellTiter-Glo cell viability assay, C4-2 cells; type: cell-based
Description: (§1) PC3, C4-2, and C4-2Luc cells were seeded at a density of 3,000 cells/well in 96-well plates and incubated at 37° C. under 5% CO2. Next day, the cells were treated with Dox, DAC+Dox, or DAC-D for 24 h. Next day the treatment was removed, cells were washed once with warm fresh media and incubated for another 48 h in fresh media. Cell counts were measured indirectly by measuring the ATP amounts using CellTiter-Glo® luminescent cell viability assay (Promega, Madison, Wis.) according to the manufacturer's protocol. In co-culture experiments, PC3 and C4-2Luc cells were each seeded at a density of 1,500 cells/well in 96-well plates. Co-cultured cells were treated with Dox, DAC+Dox, or DAC-D and cell viability was also measured using the CellTiter-Glo® assay. Luciferase levels were measured for co-cultures of PC3 and C4-2Luc cells using a luciferase reporter assay system (Promega). PC3 and C4-2Luc cells were seeded and treated as described above and the cells were lysed and luciferase activity was measured according to the manufacturer's protocol.

PC3 cells = test: Cytotoxicity, CellTiter-Glo cell viability assay, PC3 cells; type: cell-based
Description: as §1

PSMA+ C4-2 cells = test: Uptake/internalization by confocal microscopy and flow cytometry, PSMA+ C4-2 cells; type: cell-based
Description: (§2) Cells were seeded at 20,000 cells/well in 8-well Lab-Tek® II chambered #1.5 German coverglass system (Thermo Fisher Sci., Waltham, Mass.), and incubated at 37° C. under 5% CO2 for 2 days. Cells were incubated with 1 μM of DAC in which the dA16 aptamer was labeled with Quasar 570 at the 5′-terminus and the T16 aptamer was labeled with Quasar 670 dyes in RPMI with 10% FBS for 2 h at 37° C. Cells were washed with fresh media and DPBS, followed by a 5 min fixation with 3.7% formaldehyde in DPBS. Cells were visualized using a Zeiss LSM510 confocal microscope (Carl Zeiss, Oberkochen, Germany). Cells were also incubated with 1 μM of DAC-D (or the non-covalent DAC+D), for 2 h. DAC were only labeled with Quasar 670 for these studies as the Quasar 570 emission would interfere with the Dox emission. Cells were washed, fixed, and imaged using identical procedures.
(§3) PC3 and C4-2 cells were incubated with 1 μM of DAC for 2 h at 37° C. Dimers were fluorescently labeled with either Quasar 570 or 670 alone, or both. Cells were trypsinized and washed with PBS twice. Cells re-suspended in PBS were analyzed to measure their intracellular fluorescence using the Accuri™ C6 flow cytometer (BD Biosciences).

PSMA-null PC3 cells = test: Uptake/internalization by confocal microscopy and flow cytometry, PSMA-null PC3 cells; type: cell-based; conditions: 1 μM, 2 h, confocal microscopy
Description: as §2, §3

[1] = cited from earlier work
[2] = Temperature-dependent UV melting (thermal stability of dimeric aptamer complexes); type: physicochemical; conditions: UV absorbance at 260 nm, heating 0.7° C./min
Description: Temperature-dependent UV absorption spectra were obtained using a Beckman Coulter DU-800 UV-Vis spectrophotometer. Samples of DAC, DAC-D, and DAC+D were prepared. The temperature was increased at a rate of 0.7° C./min over the range 20-85° C. and absorbance at 260 nm was measured for each sample, (400 μL, 1 μM) concentration.

[3] = Determination of Dox:DNA ratios by absorbance; type: physicochemical
Description: DNA Ratios: DNA samples were prepared in dH2O, and absorbencies were measured from 200-800 nm using a Beckman Coulter DU800 spectrophotometer. A standard curve of Dox was established between 1 μM and 10 μM by using absorbencies at 494 nm at 85° C. To assess the amount of Dox covalently bound to DNA, the samples were heated to 85° C. before measuring the absorbance at 494 nm and 260 nm. The 260 nm wavelength was used to determine the DNA content in the sample and to determine the Dox:DNA ratio.

Compound | reduction in viability (C4-2 cells; 2 μM Dox, 24 h treatment + 48 h growth, cell line not specified in the sentence (PC3 and C4-2)) [%] | cytotoxicity (in words) (C4-2 cells; C4-2 cells) | cytotoxicity (in words) (PC3 cells) | Dox internalization / nuclear accumulation (PSMA+ C4-2 cells; 1 μM, 2 h, confocal microscopy, C4-2 cells) | Dox internalization / nuclear accumulation (PSMA-null PC3 cells; PC3 cells) | pKa of the doxorubicin amino group [1] | dissociation temperature [2] [°C] | uptake of fluorescently-labeled aptamer (PSMA+ C4-2 cells; 1 μM, 2 h, Quasar 570/670 labels, confocal microscopy) | uptake after pre-incubation with J591 PSMA-specific monoclonal antibody (PSMA+ C4-2 cells; C4-2 cells pre-incubated with J591) | uptake of fluorescently-labeled aptamer (PSMA-null PC3 cells; Quasar 570/670 labels) | calc ratio (Dox bound per DAC) ([3]; Dox:DAC ratio 16x) | calc ratio (Dox bound per DAC) ([3]; Dox:DAC ratio 24x) | calc ratio (Dox bound per DAC) ([3]; Dox:DAC ratio 32x) | molar equivalents of doxorubicin that can be covalently bound to each DAC ([3]; titration) [molar equivalents]
COc1cccc2c1C(=O)c1c(O)c3c(c(O)c1C2=O)C[C@@](O)(C(=O)CO)C[C@@H]3O[C@H]1C[C@H](N)[C@H](O)[C@H](C)O1 [Dox, doxorubicin] | ~90 | highly cytotoxic | highly cytotoxic | readily accumulated | readily accumulated | 8.2 |  |  |  |  |  |  |  | 
DAC: Dimer of PSMA DNA aptamer SZTI01 annealed through dCGGCA16GCCG / dCGGCT16GCCG tails (SEQ ID NO:5, 6) (chain 1 CGGCAAAAAAAAAAAAAAAAGCCG; chain 2 CGGCTTTTTTTTTTTTTTTTGCCG; DNA, backbone and methylation of C not given here; tails of DNA aptamer dimer, further chemistry not fully specified) |  |  |  |  |  |  | ~58 | strong signal | attenuated | minimal uptake | 10.8 | 14.18 | 13.7156 | 14
